Counter-ions that a name gives are not always drawn. Like-named read-outs stand apart in the source and are kept apart here.
What was measured:
Format in all cases: biochemical
Lectin Pathway = experiment: Lectin pathway activation assay in human serum (mannan-coated ELISA, C3c detection); conditions: 1% human serum
MASP-2 (CCP1-CCP2-SP) = MASP-2 (CCP1-CCP2-SP) (Homo sapiens (Human), UniProt O00187); experiment: biochemical
human α-thrombin = human α-thrombin (Homo sapiens (Human), UniProt P00734); experiment: Enzymatic assay for thrombin (Boc-VPR-AMC substrate)
mMASP-2 = mMASP-2 (Mus musculus (Mouse), UniProt Q91WP0); experiment: Enzymatic inhibition of mMASP-2; conditions: read-out: mMASP-2 Ki
[1] = MASP-2 inhibition versus thrombin
[2] = selectivity for MASP-2 inhibition versus thrombin

MASP-2 (CCP1-CCP2-SP), sequence (O00187 445-686): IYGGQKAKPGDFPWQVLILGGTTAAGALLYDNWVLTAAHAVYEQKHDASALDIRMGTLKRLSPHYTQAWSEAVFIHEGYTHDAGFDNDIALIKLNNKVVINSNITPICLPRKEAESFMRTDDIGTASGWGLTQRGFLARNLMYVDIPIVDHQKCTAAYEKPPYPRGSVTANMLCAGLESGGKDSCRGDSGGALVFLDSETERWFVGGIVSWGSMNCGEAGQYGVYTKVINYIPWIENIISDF
mMASP-2, sequence (Q91WP0 20-685): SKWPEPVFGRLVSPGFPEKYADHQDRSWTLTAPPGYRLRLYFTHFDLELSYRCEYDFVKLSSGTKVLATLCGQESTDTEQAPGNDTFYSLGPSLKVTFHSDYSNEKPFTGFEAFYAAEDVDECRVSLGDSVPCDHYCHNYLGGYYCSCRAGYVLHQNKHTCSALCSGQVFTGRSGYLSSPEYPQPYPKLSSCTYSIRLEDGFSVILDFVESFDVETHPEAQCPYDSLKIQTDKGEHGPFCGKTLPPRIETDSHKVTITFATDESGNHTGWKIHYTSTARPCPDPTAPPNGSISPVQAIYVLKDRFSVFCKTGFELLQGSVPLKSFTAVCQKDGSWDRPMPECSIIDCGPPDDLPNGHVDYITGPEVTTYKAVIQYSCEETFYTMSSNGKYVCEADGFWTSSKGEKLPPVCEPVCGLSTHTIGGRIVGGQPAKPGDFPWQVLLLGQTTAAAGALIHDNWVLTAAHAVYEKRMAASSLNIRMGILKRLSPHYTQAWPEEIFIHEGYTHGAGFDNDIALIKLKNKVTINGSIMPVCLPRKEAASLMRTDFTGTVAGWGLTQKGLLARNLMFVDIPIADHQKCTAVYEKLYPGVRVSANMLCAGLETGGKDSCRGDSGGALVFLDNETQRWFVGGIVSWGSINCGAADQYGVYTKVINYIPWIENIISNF

## C[C@H](NC(=O)[C@H]1C[C@@H](c2ccccc2)CCN1)C(=O)NCc1cc(Cl)ccc1O [compound 1078]
Lectin Pathway
  IC50: 500 to 5000 nM
MASP-2 (CCP1-CCP2-SP); read-out: MASP-2 Ki
  Ki: < 500 nM

## Cc1ccc(CSC(C)(C)[C@@H](N)C(=O)N2CC[C@H]2C(=O)NCc2ccc(C(=N)N)cc2)cc1 [compound 1133]
Lectin Pathway
  IC50: 5000 to 50000 nM
Human α-thrombin; read-out: Thrombin Ki
  Ki: < 0.5 µM
MASP-2 (CCP1-CCP2-SP); [1]
  MASP-2 vs. thrombin selectivity: −− (less than 1.0-fold)
MASP-2 (CCP1-CCP2-SP); read-out: MASP-2 Ki
  Ki: < 500 nM

## C[C@H](NC(=O)[C@H](N)C1Cc2ccccc2C1)C(=O)NCc1ccc2nc(N)n(C)c2c1 [compound 1171]
Lectin Pathway
  IC50: > 50000 nM
Human α-thrombin; read-out: Thrombin Ki
  Ki: > 25 µM

## C[C@H](NC(=O)[C@H]1C[C@H](Cc2ccccc2)CN1)C(=O)NCc1cnc2c(c1)c(Cl)cn2C [compound 1450, (2R,4S)-4-Benzyl-N-((S)-1-(((3-chloro-1-methyl-1H-pyrrolo[2,3-b]pyridin-5-yl)methyl)amino)-1-oxopropan-2-yl)pyrrolidine-2-carboxamide Dihydrochloride]
Lectin Pathway
  IC50: 50 to 500 nM
mMASP-2
  Ki: < 500 nM
MASP-2 (CCP1-CCP2-SP); read-out: MASP-2 Ki
  Ki: < 500 nM
MASP-2 (CCP1-CCP2-SP); [2]
  MASP-2 vs. thrombin selectivity: **** (≥100-fold)

## C[C@H](NC(=O)[C@H]1C[C@@H](c2ccccc2)CCN1)C(=O)NCc1ccc(N)nc1 (stereo in doubt) [compound 1025]
Lectin Pathway
  IC50: 500 to 5000 nM
Human α-thrombin; read-out: Thrombin Ki
  Ki: > 25 µM

## N=C(N)c1ccc(CNC(=O)[C@@H]2CCN2C(=O)[C@@H](CCCc2ccccc2)NCC(=O)O)cc1 [compound 1131]
Lectin Pathway
  IC50: 500 to 5000 nM
Human α-thrombin; read-out: Thrombin Ki
  Ki: < 0.5 µM
MASP-2 (CCP1-CCP2-SP); [1]
  MASP-2 vs. thrombin selectivity: −− (less than 1.0-fold)
MASP-2 (CCP1-CCP2-SP); read-out: MASP-2 Ki
  Ki: < 500 nM

## Cc1cccc(C2CCNC(C(=O)N[C@@H](C)C(=O)NCc3ccc(C(=N)N)cc3)C2)c1 (stereo partly drawn) [compound 1098]
Lectin Pathway
  IC50: < 50 nM
MASP-2 (CCP1-CCP2-SP); read-out: MASP-2 Ki
  Ki: < 500 nM

## C[C@H](NC(=O)[C@H](N)C1Cc2ccccc2C1)C(=O)NCc1ccc2nc(N)ccc2c1 [compound 1091]
Lectin Pathway
  IC50: 5000 to 50000 nM
Human α-thrombin; read-out: Thrombin Ki
  Ki: > 25 µM
mMASP-2
  Ki: < 500 nM

## C[C@@H](C(=O)NCc1ccc2c(N)nccc2c1)N(C)C(=O)[C@H](N)CCc1cccc(C(F)(F)F)c1 [compound 1139, (R)-2-Amino-N—((S)-1-(((1-aminoisoquinolin-6-yl)methyl)amino)-1-oxopropan-2-yl)-N-methyl-4-(3-(trifluoromethyl)phenyl)butanamide Dihydrochloride]
Lectin Pathway
  IC50: 5000 to 50000 nM
mMASP-2
  Ki: < 10000 nM
MASP-2 (CCP1-CCP2-SP); read-out: MASP-2 Ki
  Ki: < 500 nM

## N=C(N)c1ccc(CNC(=O)[C@@H]2CCN2C(=O)[C@H](NCC(=O)O)C2Cc3ccccc3C2)cc1 [compound 1129]
Lectin Pathway
  IC50: 500 to 5000 nM
Human α-thrombin; read-out: Thrombin Ki
  Ki: < 0.5 µM
MASP-2 (CCP1-CCP2-SP); [1]
  MASP-2 vs. thrombin selectivity: −− (less than 1.0-fold)
MASP-2 (CCP1-CCP2-SP); read-out: MASP-2 Ki
  Ki: < 500 nM

## C[C@H](NC(=O)[C@H](N)C1Cc2ccccc2C1)C(=O)NCc1ccc2c(N)nccc2c1 [compound 1088, (S)-2-((R)-2-Amino-2-(2,3-dihydro-1H-inden-2-yl)acetamido)-N-((1-aminoisoquinolin-6-yl)methyl)propanamide Dihydrochloride]
Lectin Pathway
  IC50: 50 to 500 nM
mMASP-2
  Ki: < 500 nM
MASP-2 (CCP1-CCP2-SP); read-out: MASP-2 Ki
  Ki: < 500 nM

## N=C(N)c1ccc(CNC(=O)[C@@H]2CCN2C(=O)[C@H](NCC(=O)O)C2CCCC2)cc1 [compound 1083]
Lectin Pathway
  IC50: 5000 to 50000 nM
Human α-thrombin; read-out: Thrombin Ki
  Ki: < 0.5 µM
MASP-2 (CCP1-CCP2-SP); [1]
  MASP-2 vs. thrombin selectivity: −− (less than 1.0-fold)
MASP-2 (CCP1-CCP2-SP); read-out: MASP-2 Ki
  Ki: < 500 nM

## N=C(N)c1ccc(CNC(=O)[C@@H]2CCN2C(=O)[C@@H](CC2CCCCC2)NCC(=O)O)cc1 [compound 1114]
Lectin Pathway
  IC50: 500 to 5000 nM
Human α-thrombin; read-out: Thrombin Ki
  Ki: < 0.5 µM
MASP-2 (CCP1-CCP2-SP); [1]
  MASP-2 vs. thrombin selectivity: −− (less than 1.0-fold)
MASP-2 (CCP1-CCP2-SP); read-out: MASP-2 Ki
  Ki: < 500 nM

## C[C@H](NC(=O)[C@H](N)C1Cc2ccccc2C1)C(=O)NCc1ccc(C(=N)N)cc1 [compound 1035]
Lectin Pathway
  IC50: < 50 nM
Human α-thrombin; read-out: Thrombin Ki
  Ki: < 0.5 µM
MASP-2 (CCP1-CCP2-SP); [1]
  MASP-2 vs. thrombin selectivity: ** (5.0 to 25-fold)
MASP-2 (CCP1-CCP2-SP); read-out: MASP-2 Ki
  Ki: < 500 nM

## C[C@H](NC(=O)[C@H](N)CCc1ccccc1)C(=O)NCCc1ccc(N)nc1 [compound 1015, (R)-2-Amino-N—((S)-1-((2-(6-aminopyridin-3-yl)ethyl)amino)-1-oxopropan-2-yl)-4-phenylbutanamide Dihydrochloride]
Lectin Pathway
  IC50: 5000 to 50000 nM
Human α-thrombin; read-out: Thrombin Ki
  Ki: > 25 µM
mMASP-2
  Ki: < 25000 nM

## N=C(N)c1ccc(CNC(=O)[C@@H]2CCN2C(=O)[C@H](N)CCCc2ccccc2)cc1 [compound 1069]
Lectin Pathway
  IC50: 500 to 5000 nM
Human α-thrombin; read-out: Thrombin Ki
  Ki: < 0.5 µM
MASP-2 (CCP1-CCP2-SP); [1]
  MASP-2 vs. thrombin selectivity: −− (less than 1.0-fold)
MASP-2 (CCP1-CCP2-SP); read-out: MASP-2 Ki
  Ki: < 500 nM

## N=C(N)c1ccc(CNC(=O)[C@@H]2CCCCN2C(=O)[C@H](N)C2CCCCC2)cc1 [compound 1051]
Lectin Pathway
  IC50: 5000 to 50000 nM
Human α-thrombin; read-out: Thrombin Ki
  Ki: < 0.5 µM

## Nc1nccc2cc(CNC(=O)[C@@H]3CCN3C(=O)[C@H](N)C3CCCCC3)ccc12 [compound 1041, (S)-1-((R)-2-Amino-2-cyclohexylacetyl)-N-((1-aminoisoquinolin-6-yl)methyl)azetidine-2-carboxamide dihydrochloride]
Lectin Pathway
  IC50: 5000 to 50000 nM
Human α-thrombin; read-out: Thrombin Ki
  Ki: < 0.5 µM

## N=C(N)c1ccc(CNC(=O)[C@@H]2CCCN2C(=O)[C@H](NCC(=O)O)C2CCCCC2)cc1 [compound 1115]
Lectin Pathway
  IC50: 500 to 5000 nM
Human α-thrombin; read-out: Thrombin Ki
  Ki: < 0.5 µM
MASP-2 (CCP1-CCP2-SP); [1]
  MASP-2 vs. thrombin selectivity: −− (less than 1.0-fold)
MASP-2 (CCP1-CCP2-SP); read-out: MASP-2 Ki
  Ki: < 500 nM

## C[C@H](NC(=O)[C@H](NCC(=O)O)C1CCCCC1)C(=O)NCc1ccc(C(=N)N)cc1 [compound 1094]
Lectin Pathway
  IC50: 5000 to 50000 nM
Human α-thrombin; read-out: Thrombin Ki
  Ki: < 0.5 µM
MASP-2 (CCP1-CCP2-SP); [1]
  MASP-2 vs. thrombin selectivity: −− (less than 1.0-fold)
MASP-2 (CCP1-CCP2-SP); read-out: MASP-2 Ki
  Ki: < 500 nM

## C[C@H](NC(=O)[C@H](N)Cc1csc2ccccc12)C(=O)NCc1ccc(C(=N)N)cc1 [compound 1099]
Lectin Pathway
  IC50: 50 to 500 nM
Human α-thrombin; read-out: Thrombin Ki
  Ki: < 0.5 µM
MASP-2 (CCP1-CCP2-SP); [1]
  MASP-2 vs. thrombin selectivity: −− (less than 1.0-fold)
MASP-2 (CCP1-CCP2-SP); read-out: MASP-2 Ki
  Ki: < 500 nM

## N=C(N)c1ccc(CNC(=O)[C@@H]2CCN2C(=O)[C@H](N)C2CCCC2)cc1 [compound 1008]
Lectin Pathway
  IC50: 5000 to 50000 nM
Human α-thrombin; read-out: Thrombin Ki
  Ki: < 0.5 µM

## N=C(N)c1ccc(CNC(=O)[C@@H]2CCN2C(=O)[C@H](N)Cc2ccccc2)cc1 [compound 1023]
Lectin Pathway
  IC50: 5000 to 50000 nM
Human α-thrombin; read-out: Thrombin Ki
  Ki: < 0.5 µM

## N=C(N)c1ccc(CNC(=O)[C@@H]2CCN2C(=O)[C@H](N)c2ccccc2)cc1 [compound 1011, (S)-1-((R)-2-amino-2-phenylacetyl)-N-(4-carbamimidoylbenzyl)azetidine-2-carboxamide]
Lectin Pathway
  IC50: 500 to 5000 nM
Human α-thrombin; read-out: Thrombin Ki
  Ki: < 0.5 µM
MASP-2 (CCP1-CCP2-SP); [1]
  MASP-2 vs. thrombin selectivity: −− (less than 1.0-fold)
MASP-2 (CCP1-CCP2-SP); read-out: MASP-2 Ki
  Ki: < 500 nM

## C[C@H](NC(=O)[C@H](N)CCCc1ccccc1)C(=O)NCc1ccc(C(=N)N)cc1 [compound 1042]
Lectin Pathway
  IC50: < 50 nM
Human α-thrombin; read-out: Thrombin Ki
  Ki: < 0.5 µM
MASP-2 (CCP1-CCP2-SP); [1]
  MASP-2 vs. thrombin selectivity: ** (5.0 to 25-fold)
MASP-2 (CCP1-CCP2-SP); read-out: MASP-2 Ki
  Ki: < 500 nM

## N=C(N)c1ccc(CNC(=O)[C@@H]2CCN2C(=O)[C@@H](Cc2ccccc2)NCC(=O)O)cc1 [compound 1109]
Lectin Pathway
  IC50: > 50000 nM
Human α-thrombin; read-out: Thrombin Ki
  Ki: < 0.5 µM

## N=C(N)c1ccc(CNC(=O)[C@@H]2CCN2C(=O)[C@H](NCC(=O)O)C2CCCCC2)cc1O [compound 1116, ((R)-2-((S)-2-((4-Carbamimidoyl-3-hydroxybenzyl)carbamoyl)azetidin-1-yl)-1-cyclohexyl-2-oxoethyl)glycine]
Lectin Pathway
  IC50: 5000 to 50000 nM
Human α-thrombin; read-out: Thrombin Ki
  Ki: < 0.5 µM

## CCNC(=O)COc1ccc(Cl)cc1CNC(=O)[C@H](C)NC(=O)[C@H](N)CCc1ccccc1 [compound 1137, (R)-2-Amino-N—((S)-1-((5-chloro-2-(2-(ethylamino)-2-oxoethoxy)benzyl)amino)-1-oxopropan-2-yl)-4-phenylbutanamide]
Lectin Pathway
  IC50: > 50000 nM

## C[C@H](NC(=O)[C@H](NCC(=O)O)C1Cc2ccccc2C1)C(=O)NCc1ccc(C(=N)N)cc1 [compound 1123]
Lectin Pathway
  IC50: 500 to 5000 nM

## N=C(N)c1ccc(CNC(=O)[C@@H]2CCCCN2C(=O)[C@H](NCC(=O)O)C2CCCCC2)cc1 [compound 1127]
Lectin Pathway
  IC50: 5000 to 50000 nM
Human α-thrombin; read-out: Thrombin Ki
  Ki: < 0.5 µM

## CC(C)(C)[C@@H](NCC(=O)O)C(=O)N1CC[C@H]1C(=O)NCc1ccc(C(=N)N)cc1 [compound 1055]
Lectin Pathway
  IC50: 5000 to 50000 nM
Human α-thrombin; read-out: Thrombin Ki
  Ki: < 0.5 µM

## C[C@H](NC(=O)c1cc(-c2ccccc2)c(-c2ccccc2)[nH]1)C(=O)NCc1ccc(C(=N)N)cc1 [compound 1240, (S)—N-(1-((4-Carbamimidoylbenzyl)amino)-1-oxopropan-2-yl)-4,5-diphenyl-1H-pyrrole-2-carboxamide]
Lectin Pathway
  IC50: 500 to 5000 nM
Human α-thrombin; Thrombin Ki (μM)
  Ki: 10 to 25 µM
MASP-2 (CCP1-CCP2-SP)
  Ki: 500 to 2500 nM
MASP-2 (CCP1-CCP2-SP); [2]
  MASP-2 vs. thrombin selectivity: ** (≥5.0 to <25-fold)

## C[C@H](NC(=O)[C@@H](CCc1ccccc1)NCCCc1ccc(O)cc1)C(=O)NCc1ccc(C(=N)N)cc1 [compound 1145]
Lectin Pathway
  IC50: 50 to 500 nM
MASP-2 (CCP1-CCP2-SP); read-out: MASP-2 Ki
  Ki: < 500 nM
